Structures are written as SMILES. Read-outs that look alike come from different tables or passages of the source.

The test system of one test is Botrytis cinerea. Nature of the test: Activity against the grey mold Botrytis cinerea in the microtiterplate test (Botrci). In kind it is cell-based. The note with it: solo, MTP, 405 nm, 7 days after inoculation.
For the next test, the system named is Pyricularia oryzae. In kind it is cell-based. The conditions noted are these: Pyrior, solo, MTP, 405 nm, 7 days after inoculation.

With `CC1COC(Cn2cncn2)(c2ccc(Oc3ccc(Cl)cc3)cc2Cl)O1` (stereo not shown) [Difenoconazol, 1-[2-[4-(4-chlorophenoxy)-2-chlorophenyl]-4-methyl-1,3-dioxolan-2-ylmethyl]-1H-1,2,4-triazole], the Observed efficacy is 30% in the test on Botrytis cinerea (0.25 ppm) and 15% with Pyricularia oryzae (1 ppm).
For `CC1(C)CC/C(=C\c2ccc(Cl)cc2)C1(O)Cn1cncn1` (racemic) [Triticonazol, (±) E-5-(4-chlorobenzylidene)-2,2-dimethyl-1-(1H-1,2,4-triazol-1-ylmethyl)cyclopentanol], the Observed efficacy was found to be 55% in the test with Botrytis cinerea (1 ppm) and 35% in the test with Pyricularia oryzae (4 ppm).

The values above are taken from patent publication US8293680B2, “Fungicidal mixtures of triticonazole and difenoconazole” (BASF SE, priority 2007, dated 2012).
